In US6133311A, “Method for preventing or treating elevated blood lipid level-related diseases by administering natural phenolic compounds” (priority 1998, dated 2000):

What was measured:
ACAT = target: T1, ACAT (Rattus norvegicus, UniProt Q7TQM4); test: ACAT inhibition in liver microsomes of fed rats; type: biochemical; conditions: liver microsomes of rats fed 0.1% compound, vs Control
T1 construct: microsomes were separated from liver tissues to be used as an enzyme source; from tissue; host or cells: rat liver microsomes
T1 sequence (Q7TQM4 1-524): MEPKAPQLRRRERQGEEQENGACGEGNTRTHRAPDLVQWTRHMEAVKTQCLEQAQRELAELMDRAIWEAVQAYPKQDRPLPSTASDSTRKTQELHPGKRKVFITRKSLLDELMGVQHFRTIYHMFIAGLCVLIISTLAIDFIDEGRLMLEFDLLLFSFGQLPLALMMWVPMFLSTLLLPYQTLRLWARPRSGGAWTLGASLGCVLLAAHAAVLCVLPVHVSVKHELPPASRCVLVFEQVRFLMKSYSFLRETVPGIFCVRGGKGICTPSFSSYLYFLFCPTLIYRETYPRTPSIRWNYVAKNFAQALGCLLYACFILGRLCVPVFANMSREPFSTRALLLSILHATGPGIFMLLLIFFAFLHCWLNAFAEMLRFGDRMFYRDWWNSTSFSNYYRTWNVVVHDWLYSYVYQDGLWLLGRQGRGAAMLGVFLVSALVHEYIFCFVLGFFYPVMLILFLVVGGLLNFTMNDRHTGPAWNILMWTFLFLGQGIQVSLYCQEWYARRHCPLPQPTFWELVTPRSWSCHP
Protocol: Activity of Tannin or gallic acid in ACAT Inhibition
To determine the effect of feeding tannin or gallic acid to rats on the activity of ACAT, microsomes were separated from liver tissues to be used as an enzyme source.
1 g each of the livers taken from each group of rats of Example 2 was homogenized in 5 ml of homogenization medium (0.1 M KH2 PO4, pH 7.4, 0.1 mM EDTA and 10 mM β-mercaptoethanol). The homogenate was centrifuged at 3,000xg for 15 min. at 4° C. and the supernatant thus obtained was centrifuged at 15,000xg for 15 min. at 4° C. to obtain a supernatant. The supernatant was put into an ultracentrifuge tube (Beckman) and centrifuged at 100,000 xg for 1 hour at 4° C. to obtain microsomal pellets, which were then suspended in 3 ml of the homogenization medium and centrifuged at 100,000 xg for 1 hour at 4° C. […] The protein concentration of the resulting suspension was determined by Lowry's method and then adjusted to 4 to 8 mg/ml. […]
200 μl of the resulting supernatant was put in a scintillation bottle and 4 ml of scintillation fluid (Lumac) was added thereto. The mixture was assayed for radioactivity with 1450 Microbeta liquid scintillation counter (Wallacoy, Finland). ACAT activity was calculated as picomoles of cholesteryl oleate synthesized per min. per mg protein (pmoles/min/mg protein) The result is shown in Table III.

[1] = chemical analysis of blood of rabbits fed a high-cholesterol diet; type: in vivo, New Zealand White rabbits; conditions: for TG (triglyceride): Control 56 ± 38; for TC (total cholesterol): Control 1143 ± 260
Protocol: Effect of Tannin, Gallic acid or Ellagic acid in an Animal
(Step 1) Administration of tannin, gallic acid or ellagic acid to rabbits
30 three-month-old male New Zealand White rabbits (Yeonam Horticulture and Animal Husbandry College, Korea), each weighing about 2.5 to 2.6 kg, were raised under a condition of temperature 20+2° C., relative humidity 55±5%, and photoperiod 12L/12D. The rabbits were divided into 5 groups and 5 groups of rabbits were fed with 5 different diets, i.e., RC4 diet (Oriental Yeast Co., Japan) containing 1% cholesterol (Control group, 1); 1% cholesterol plus 1 mg/kg Lovastatin® (Merck, U.S.A.) (Lovastatin® group, 2); 1% cholesterol plus 0.1% tannin (3); 1% cholesterol plus 0.1% gallic acid (4); and 1% cholesterol plus 0.1% ellagic acid (5), respectively. RC4 diet comprises 7.6% moisture, 22.8% crude protein, 2.8% crude fat, 8.8% crude ash, 14.4% crude cellulose and 43.6% soluble nitrogen-free substances. Tannin, gallic acid and ellagic acid were purchased from Sigma Chemical Co. (St. Louis, Mo.).
The rabbits were fed for 6 weeks while being allowed free access to the diets and water.
(Step 2) Chemical Analysis of Blood
After six weeks, the rabbits were anesthetized with an intramuscular injection of ketamine (50 mg/kg) in the femoral region and sacrificed. A blood sample was taken from the heart of each rabbit, allowed to stand for 2 hours and centrifuged at 3,000 rpm for 15 minutes and the supernatant serum was separated and stored in a freezer before use.
The chemical analysis of blood was carried out by employing a blood chemical analyzer (CIBA Corning 550 Express, USA) to determine the changes in GOT, GPT, γGTP, total cholesterol, HDL-cholesterol and triglyceride levels.

[2] = rabbits, 1% cholesterol diet plus 0.1% compound (Lovastatin 1 mg/kg), 6 weeks

| Molecule | % Inhibition on ACAT activity (ACAT) [%] | effect on the liver function (adverse) ([1]; general statement) | γGTP ([1]; rabbits, 1% cholesterol diet plus 0.1% compound (Lovastatin 1 mg/kg), 6 weeks, Control 4.2 ± 0.9) [IU/l] | TG (triglyceride) [1, 2] [mg/dL] | GPT ([1]; rabbits, 1% cholesterol diet plus 0.1% compound (Lovastatin 1 mg/kg), 6 weeks, Control 65 ± 9) [IU/l] | GOT ([1]; rabbits, 1% cholesterol diet plus 0.1% compound (Lovastatin 1 mg/kg), 6 weeks, Control 77 ± 8) [IU/l] | TC (total cholesterol) [1, 2] [mg/dL] | lipid metabolism and liver function ([1]; rabbits, 6 weeks) | effect on the liver function (adverse) ([1]; rabbit, in vivo) |
| --- | --- | --- | --- | --- | --- | --- | --- | --- | --- |
| O=C(O)c1cc(O)c(O)c(O)c1 [Gallic acid, gallic acid] | 42.1 | do not adversely affect on the liver function | 7.0 ± 2 | 27 ± 11 | 20 ± 10 | 60 ± 9 | 1150 ± 100 | can improve |  |
| tannin | 41.7 |  |  | 25 ± 10 |  |  | 1120 ± 211 | can improve | do not adversely affect on the liver function |
